Key:
Test in all cases: relative viability (nuclei count vs DMSO), 5 days (fraction); higher = more cells survive
[1] = compound: O=C(C[C@H]1NCCC[C@@H]1O)Cn1cnc2cc(Br)c(Cl)cc2c1=O (racemic) [Halofuginone] + CC(C)C[C@H](NC(=O)[C@H](Cc1ccccc1)NC(=O)c1cnccn1)B(O)O [Bortezomib] (partner 0.002 µM)
Procedure, shortened: (§1)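 Lung cancer cell lines in 1536-well plates got either a single drug or a fixed anchor-drug dose together with five library-drug doses (not always all listed) in √10 steps, by pin tool, on the day after seeding. Nuclei were counted after 5 days, and relative viability is the treated-to-vehicle ratio of nuclei counts. Values are medians of duplicate plates.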

[2] = compound: COc1cc2c(Oc3ccc4[nH]c(C)cc4c3F)ncnc2cc1OCCCN1CCCC1 [Cediranib] + Cc1nc(Nc2ncc(C(=O)Nc3c(C)cccc3Cl)s2)cc(N2CCN(CCO)CC2)n1 [Dasatinib] (partner 0.075 µM)
Procedure, shortened: as §1

[3] = compound: O=C(C[C@H]1NCCC[C@@H]1O)Cn1cnc2cc(Br)c(Cl)cc2c1=O (racemic) [Halofuginone] + Nc1nc2[nH]cc(CCc3ccc(C(=O)N[C@@H](CCC(=O)O)C(=O)O)cc3)c2c(=O)[nH]1 [Pemetrexed] (partner 0.2 µM)
Procedure, shortened: as §1

[4] = compound: Nc1ncn([C@H]2C[C@H](O)[C@@H](CO)O2)c(=O)n1 [Decitabine] + O=C(c1cc(Cc2n[nH]c(=O)c3ccccc23)ccc1F)N1CCN(C(=O)C2CC2)CC1 [Olaparib] (partner 8 µM)
Procedure, shortened: as §1

Cell Line | relative viability ([1]; first compound 0.001 µM) | relative viability ([1]; first compound 0.003162 µM) | relative viability ([1]; first compound 0.01 µM) | relative viability ([1]; first compound 0.03162 µM) | relative viability ([1]; first compound 0.1 µM) | relative viability ([2]; first compound 0.04 µM) | relative viability ([2]; first compound 0.1265 µM) | relative viability ([2]; first compound 0.4 µM) | relative viability ([2]; first compound 1.265 µM) | relative viability ([2]; first compound 4 µM) | relative viability ([3]; first compound 0.001 µM) | relative viability ([3]; first compound 0.003162 µM) | relative viability ([3]; first compound 0.01 µM) | relative viability ([3]; first compound 0.03162 µM) | relative viability ([3]; first compound 0.1 µM) | relative viability ([4]; first compound 0.04 µM) | relative viability ([4]; first compound 0.1265 µM) | relative viability ([4]; first compound 0.4 µM) | relative viability ([4]; first compound 1.265 µM) | relative viability ([4]; first compound 4 µM)
NCI-H2009 | 1.07 | 1.28 | 0.95 | 0.799 | 0.32 | 0.311 | 0.523 | 0.301 | 0.297 | 0.309 | 1.04 | 0.999 | 0.999 | 0.977 | 0.548 | 0.475 | 0.261 | 0.322 | 0.215 | 0.293
NCI-H2023 | 0.981 | 1.07 | 0.957 | 0.421 | 0.0849 | 0.594 | 0.623 | 0.567 | 0.537 | 0.668 | 0.297 | 0.185 | 0.213 | 0.152 | 0.0841 | 0.137 | 0.15 | 0.126 | 0.0911 | 0.0823
NCI-H2085 | 1.07 | 1.06 | 1.04 | 0.9 | 0.753 | 0.257 | 0.26 | 0.273 | 0.272 | 0.23 | 0.93 | 0.873 | 0.872 | 1.03 | 0.783 | 0.46 | 0.42 | 0.425 | 0.324 | 0.344
NCI-H2087 | 0.758 | 0.839 | 0.86 | 0.676 | 0.917 | 0.872 | 0.953 | 0.801 | 0.944 | 0.905 | 0.673 | 0.657 | 0.686 | 0.709 | 0.489 | 0.187 | 0.236 | 0.217 | 0.145 | 0.14
NCI-H2126 | 1.16 | 1.08 | 1.07 | 1.07 | 1.11 | 0.634 | 0.569 | 0.609 | 0.554 | 0.543 | 0.719 | 0.655 | 0.624 | 0.68 | 0.571 | 0.63 | 0.546 | 0.459 | 0.42 | 0.85
NCI-H2228 | 1.06 | 0.856 | 0.988 | 0.426 | 0.151 | 0.634 | 0.505 | 0.52 | 0.54 | 0.601 | 0.32 | 0.29 | 0.345 | 0.273 | 0.074 | 0.194 | 0.235 | 0.104 | 0.145 | 0.157
NCI-H2347 | 1.24 | 1.09 | 0.758 | 1.03 | 0.852 | 0.262 | 0.288 | 0.268 | 0.277 | 0.381 | 0.412 | 0.445 | 0.432 | 0.43 | 0.429 | 0.528 | 0.578 | 0.469 | 0.464 | 0.424

— the supplement of paper PMC10307832
